# What was measured:
# HEK293 cells = settings: high concentrations
# [1] = molecular target: ABL1(Q252H)-nonphosphorylated (Homo sapiens, UniProt P00519, Q252H); experiment: biochemical; settings: read-out: %Ctrl @ 2000nM
# [2] = molecular target: ABL1(Y253F)-phosphorylated (Homo sapiens, UniProt P00519, Y253F); experiment: biochemical; settings: read-out: %Ctrl @ 2000nM
# ALK(L1196M) = ALK(L1196M) (Homo sapiens, UniProt Q9UM73, L1196M); experiment: biochemical; settings: read-out: %Ctrl @ 2000nM
# CAMK1B = CAMK1B (Homo sapiens, UniProt Q6P2M8); experiment: biochemical; settings: read-out: %Ctrl @ 2000nM
# CDK4-cyclinD1 = CDK4-cyclinD1 (Homo sapiens, UniProt P11802); experiment: biochemical; settings: read-out: %Ctrl @ 2000nM
# EGFR = EGFR (Homo sapiens, UniProt P00533); experiment: biochemical; settings: read-out: %Ctrl @ 2000nM
# ERBB3 = ERBB3 (Homo sapiens, UniProt P21860); experiment: biochemical; settings: read-out: %Ctrl @ 2000nM
# FGFR2 = FGFR2 (Homo sapiens, UniProt P21802); experiment: biochemical; settings: read-out: %Ctrl @ 2000nM
# GRK3 = GRK3 (Homo sapiens, UniProt P35626); experiment: biochemical; settings: read-out: %Ctrl @ 2000nM
# IKK-epsilon = IKK-epsilon (Homo sapiens, UniProt Q14164); experiment: biochemical; settings: read-out: %Ctrl @ 2000nM
# IRAK4 = IRAK4 (Homo sapiens, UniProt Q9NWZ3); experiment: biochemical; settings: read-out: %Ctrl @ 2000nM
# KIT-autoinhibited = KIT-autoinhibited (Homo sapiens, UniProt P10721); experiment: biochemical; settings: read-out: %Ctrl @ 2000nM
# LOK = LOK (Homo sapiens, UniProt O94804); experiment: biochemical; settings: read-out: %Ctrl @ 2000nM
# MAP3K15 = MAP3K15 (Homo sapiens, UniProt Q6ZN16); experiment: biochemical; settings: read-out: %Ctrl @ 2000nM
# MAPKAPK5 = MAPKAPK5 (Homo sapiens, UniProt Q8IW41); experiment: biochemical; settings: read-out: %Ctrl @ 2000nM
# MEK3 = MEK3 (Homo sapiens, UniProt P46734); experiment: biochemical; settings: read-out: %Ctrl @ 2000nM
# NDR1 = NDR1 (Homo sapiens, UniProt Q15208); experiment: biochemical; settings: read-out: %Ctrl @ 2000nM
# NEK2 = NEK2 (Homo sapiens, UniProt P51955); experiment: biochemical; settings: read-out: %Ctrl @ 2000nM
# NIM1 = NIM1 (Homo sapiens, UniProt Q8IY84); experiment: biochemical; settings: read-out: %Ctrl @ 2000nM
# p38-alpha = p38-alpha (Homo sapiens, UniProt Q16539); experiment: biochemical; settings: read-out: %Ctrl @ 2000nM
# PAK4 = PAK4 (Homo sapiens, UniProt O96013); experiment: biochemical; settings: read-out: %Ctrl @ 2000nM
# PFPK5(P.falciparum) = PFPK5(P.falciparum) (Plasmodium falciparum, UniProt P61075); experiment: biochemical; settings: read-out: %Ctrl @ 2000nM
# PHKG2 = PHKG2 (Homo sapiens, UniProt P15735); experiment: biochemical; settings: read-out: %Ctrl @ 2000nM
# PIK3CA(Q546K) = PIK3CA(Q546K) (Homo sapiens, UniProt P42336, Q546K); experiment: biochemical; settings: read-out: %Ctrl @ 2000nM
# PIM1 = PIM1 (Homo sapiens, UniProt P11309); experiment: biochemical; settings: read-out: %Ctrl @ 2000nM
# PIM3 = PIM3 (Homo sapiens, UniProt Q86V86); experiment: biochemical; settings: read-out: %Ctrl @ 2000nM
# QSK = QSK (Homo sapiens, UniProt Q9Y2K2); experiment: biochemical; settings: read-out: %Ctrl @ 2000nM
# RIOK2 = RIOK2 (Homo sapiens, UniProt Q9BVS4); experiment: biochemical; settings: read-out: %Ctrl @ 2000nM
# [3] = molecular target: RSK3(Kin.Dom.2-C-terminal) (Homo sapiens, UniProt Q15349); experiment: biochemical; settings: read-out: %Ctrl @ 2000nM
# SGK = SGK (Homo sapiens, UniProt O00141); experiment: biochemical; settings: read-out: %Ctrl @ 2000nM
# SgK110 = SgK110 (Homo sapiens, UniProt P0C264); experiment: biochemical; settings: read-out: %Ctrl @ 2000nM
# SIK = SIK (Homo sapiens, UniProt P57059); experiment: biochemical; settings: read-out: %Ctrl @ 2000nM
# SNARK = SNARK (Homo sapiens, UniProt Q9H093); experiment: biochemical; settings: read-out: %Ctrl @ 2000nM
# TAOK1 = TAOK1 (Homo sapiens, UniProt Q7L7X3); experiment: biochemical; settings: read-out: %Ctrl @ 2000nM
# ULK1 = ULK1 (Homo sapiens, UniProt O75385); experiment: biochemical; settings: read-out: %Ctrl @ 2000nM
# WNK1 = WNK1 (Homo sapiens, UniProt Q9H4A3); experiment: biochemical; settings: read-out: %Ctrl @ 2000nM
# Chain of SgK110 (P0C264 whole entry): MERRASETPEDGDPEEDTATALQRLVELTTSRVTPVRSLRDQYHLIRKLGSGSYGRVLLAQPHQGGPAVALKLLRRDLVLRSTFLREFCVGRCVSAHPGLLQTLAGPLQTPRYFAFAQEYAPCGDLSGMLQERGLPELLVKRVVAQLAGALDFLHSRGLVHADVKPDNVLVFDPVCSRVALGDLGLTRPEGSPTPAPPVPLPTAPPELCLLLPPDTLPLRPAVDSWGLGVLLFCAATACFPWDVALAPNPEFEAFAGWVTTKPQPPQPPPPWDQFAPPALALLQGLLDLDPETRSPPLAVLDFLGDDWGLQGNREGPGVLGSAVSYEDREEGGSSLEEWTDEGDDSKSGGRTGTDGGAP
# Chain of RSK3(Kin.Dom.2-C-terminal) (Q15349 389-733 limits assumed): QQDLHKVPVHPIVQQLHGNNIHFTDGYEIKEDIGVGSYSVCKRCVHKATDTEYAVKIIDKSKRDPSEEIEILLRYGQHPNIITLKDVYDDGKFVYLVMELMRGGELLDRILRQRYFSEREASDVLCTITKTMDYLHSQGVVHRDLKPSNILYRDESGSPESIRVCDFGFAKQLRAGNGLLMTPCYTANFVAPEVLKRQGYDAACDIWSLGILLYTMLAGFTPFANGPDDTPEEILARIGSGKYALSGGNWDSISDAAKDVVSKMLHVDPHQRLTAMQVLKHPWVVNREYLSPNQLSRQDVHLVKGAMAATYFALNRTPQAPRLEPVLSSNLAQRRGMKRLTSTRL
# Chain of LOK (O94804 whole entry): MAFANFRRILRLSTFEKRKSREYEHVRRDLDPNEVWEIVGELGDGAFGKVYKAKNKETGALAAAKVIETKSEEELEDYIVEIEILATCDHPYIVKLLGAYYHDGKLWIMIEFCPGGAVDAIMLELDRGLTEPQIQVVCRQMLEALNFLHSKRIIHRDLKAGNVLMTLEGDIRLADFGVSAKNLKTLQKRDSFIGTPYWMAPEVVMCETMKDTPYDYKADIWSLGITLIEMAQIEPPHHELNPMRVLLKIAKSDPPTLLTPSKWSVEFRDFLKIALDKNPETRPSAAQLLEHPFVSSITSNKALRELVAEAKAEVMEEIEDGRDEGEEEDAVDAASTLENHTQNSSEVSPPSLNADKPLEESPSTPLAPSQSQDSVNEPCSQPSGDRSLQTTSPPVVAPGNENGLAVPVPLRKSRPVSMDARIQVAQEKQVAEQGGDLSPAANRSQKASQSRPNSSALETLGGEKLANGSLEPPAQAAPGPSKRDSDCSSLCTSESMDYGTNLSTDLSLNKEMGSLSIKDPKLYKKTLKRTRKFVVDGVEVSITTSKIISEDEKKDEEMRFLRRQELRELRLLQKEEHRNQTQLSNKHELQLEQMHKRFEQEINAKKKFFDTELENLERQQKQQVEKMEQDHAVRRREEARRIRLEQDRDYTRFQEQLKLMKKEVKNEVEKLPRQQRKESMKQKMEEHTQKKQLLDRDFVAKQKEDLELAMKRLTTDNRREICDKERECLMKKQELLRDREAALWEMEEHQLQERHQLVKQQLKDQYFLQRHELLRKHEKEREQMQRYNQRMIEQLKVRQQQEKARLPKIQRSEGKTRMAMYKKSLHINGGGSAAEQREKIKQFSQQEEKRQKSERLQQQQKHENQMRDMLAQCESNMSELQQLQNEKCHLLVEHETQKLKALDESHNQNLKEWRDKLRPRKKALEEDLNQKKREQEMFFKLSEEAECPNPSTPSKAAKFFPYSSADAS
# Chain of CAMK1B (Q6P2M8 whole entry): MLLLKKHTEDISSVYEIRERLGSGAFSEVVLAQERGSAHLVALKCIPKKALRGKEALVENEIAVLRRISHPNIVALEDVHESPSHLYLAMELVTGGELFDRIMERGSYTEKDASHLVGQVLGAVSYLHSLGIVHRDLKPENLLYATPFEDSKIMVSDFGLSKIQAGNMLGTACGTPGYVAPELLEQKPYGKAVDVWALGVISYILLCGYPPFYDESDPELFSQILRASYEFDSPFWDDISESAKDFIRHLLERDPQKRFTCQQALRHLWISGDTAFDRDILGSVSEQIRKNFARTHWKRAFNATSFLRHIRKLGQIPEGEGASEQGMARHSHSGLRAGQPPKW
# Chain of CDK4-cyclinD1 (P11802 whole entry): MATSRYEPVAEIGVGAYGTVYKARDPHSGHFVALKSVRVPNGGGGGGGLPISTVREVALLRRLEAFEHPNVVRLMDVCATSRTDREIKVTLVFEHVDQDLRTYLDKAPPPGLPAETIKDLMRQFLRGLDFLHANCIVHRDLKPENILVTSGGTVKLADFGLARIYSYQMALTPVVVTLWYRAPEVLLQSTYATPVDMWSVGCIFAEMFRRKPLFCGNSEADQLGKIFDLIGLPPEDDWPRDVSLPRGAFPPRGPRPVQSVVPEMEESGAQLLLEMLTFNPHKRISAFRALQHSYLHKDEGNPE
# Chain of CDK4-cyclinD1 (P24385 whole entry partner): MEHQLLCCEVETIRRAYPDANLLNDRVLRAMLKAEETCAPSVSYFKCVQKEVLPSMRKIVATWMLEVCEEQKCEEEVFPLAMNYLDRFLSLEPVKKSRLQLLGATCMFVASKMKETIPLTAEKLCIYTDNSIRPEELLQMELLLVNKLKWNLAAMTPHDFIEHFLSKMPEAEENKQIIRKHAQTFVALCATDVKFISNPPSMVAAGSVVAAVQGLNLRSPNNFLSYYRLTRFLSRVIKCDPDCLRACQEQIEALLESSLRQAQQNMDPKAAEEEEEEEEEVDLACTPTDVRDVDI
# Chain of PIK3CA(Q546K) (P42336 whole entry Q546K): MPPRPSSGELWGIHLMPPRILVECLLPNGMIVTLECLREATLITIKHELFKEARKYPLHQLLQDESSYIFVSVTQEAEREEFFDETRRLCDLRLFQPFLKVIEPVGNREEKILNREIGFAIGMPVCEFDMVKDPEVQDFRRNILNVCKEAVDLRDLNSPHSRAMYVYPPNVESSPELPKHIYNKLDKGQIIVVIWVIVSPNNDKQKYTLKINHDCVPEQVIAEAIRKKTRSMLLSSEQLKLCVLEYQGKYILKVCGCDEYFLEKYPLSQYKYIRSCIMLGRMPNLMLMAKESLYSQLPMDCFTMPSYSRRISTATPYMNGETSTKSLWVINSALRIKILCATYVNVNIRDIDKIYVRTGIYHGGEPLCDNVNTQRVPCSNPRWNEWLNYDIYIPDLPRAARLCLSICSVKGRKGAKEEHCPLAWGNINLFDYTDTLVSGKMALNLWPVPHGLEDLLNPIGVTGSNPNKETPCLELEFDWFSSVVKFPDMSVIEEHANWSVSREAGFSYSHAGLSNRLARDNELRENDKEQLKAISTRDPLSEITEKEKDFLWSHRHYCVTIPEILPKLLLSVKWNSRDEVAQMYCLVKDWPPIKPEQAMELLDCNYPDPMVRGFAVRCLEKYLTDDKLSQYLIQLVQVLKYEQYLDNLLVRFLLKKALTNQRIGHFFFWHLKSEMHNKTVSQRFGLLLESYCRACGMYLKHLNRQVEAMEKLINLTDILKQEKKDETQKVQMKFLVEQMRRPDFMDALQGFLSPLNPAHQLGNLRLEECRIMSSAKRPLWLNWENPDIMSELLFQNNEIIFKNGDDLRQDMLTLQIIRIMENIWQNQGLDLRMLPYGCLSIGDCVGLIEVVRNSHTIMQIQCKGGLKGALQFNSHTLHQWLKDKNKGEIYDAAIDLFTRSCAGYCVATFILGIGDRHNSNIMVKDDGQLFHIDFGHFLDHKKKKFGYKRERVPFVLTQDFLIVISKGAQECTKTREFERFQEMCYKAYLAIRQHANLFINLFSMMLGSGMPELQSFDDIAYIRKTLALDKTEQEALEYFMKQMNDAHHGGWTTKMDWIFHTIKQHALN
# Chain of EGFR (P00533 25-1210): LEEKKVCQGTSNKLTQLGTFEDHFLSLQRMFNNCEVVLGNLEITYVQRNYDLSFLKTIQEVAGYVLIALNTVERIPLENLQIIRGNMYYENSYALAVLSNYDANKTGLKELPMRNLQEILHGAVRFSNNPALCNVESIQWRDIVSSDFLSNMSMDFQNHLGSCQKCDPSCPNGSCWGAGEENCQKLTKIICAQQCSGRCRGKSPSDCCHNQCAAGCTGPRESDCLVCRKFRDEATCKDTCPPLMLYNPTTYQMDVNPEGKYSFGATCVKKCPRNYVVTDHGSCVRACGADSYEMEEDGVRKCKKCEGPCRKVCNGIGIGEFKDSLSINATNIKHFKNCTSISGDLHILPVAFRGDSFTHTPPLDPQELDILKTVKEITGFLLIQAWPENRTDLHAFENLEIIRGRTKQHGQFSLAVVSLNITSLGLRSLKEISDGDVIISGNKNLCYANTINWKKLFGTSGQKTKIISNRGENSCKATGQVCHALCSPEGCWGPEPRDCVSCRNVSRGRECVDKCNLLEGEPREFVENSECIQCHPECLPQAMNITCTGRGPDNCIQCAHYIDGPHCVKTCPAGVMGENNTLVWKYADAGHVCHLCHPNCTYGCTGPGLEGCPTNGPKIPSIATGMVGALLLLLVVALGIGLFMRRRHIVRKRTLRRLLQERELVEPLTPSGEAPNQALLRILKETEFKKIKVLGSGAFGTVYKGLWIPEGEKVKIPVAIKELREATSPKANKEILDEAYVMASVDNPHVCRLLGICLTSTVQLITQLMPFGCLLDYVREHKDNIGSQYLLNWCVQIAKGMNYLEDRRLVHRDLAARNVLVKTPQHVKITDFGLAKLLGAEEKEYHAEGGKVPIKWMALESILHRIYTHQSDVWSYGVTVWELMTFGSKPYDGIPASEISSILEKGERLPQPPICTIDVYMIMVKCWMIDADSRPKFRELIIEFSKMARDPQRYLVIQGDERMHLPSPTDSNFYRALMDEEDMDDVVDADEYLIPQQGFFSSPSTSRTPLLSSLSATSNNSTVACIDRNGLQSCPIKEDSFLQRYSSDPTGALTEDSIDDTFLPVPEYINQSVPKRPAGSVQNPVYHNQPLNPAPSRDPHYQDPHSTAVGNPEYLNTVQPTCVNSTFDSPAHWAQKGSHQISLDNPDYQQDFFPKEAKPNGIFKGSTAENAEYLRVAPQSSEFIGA
smiles,measurement,setting,value
"CC(C)COC(=O)c1[nH]c2ccc(F)cc2c1-c1cn(CC2CCN(CCNS(=O)(=O)c3ccc(CC(C)C)cc3)CC2)nn1 [AB668, isobutyl 5-fluoro-3-(1-((1-(2-((4-isobutylphenyl)sulfonamido)ethyl)piperidin-4-yl)methyl)-1H-1,2,3-triazol-4-yl)-1H-indole-2-carboxylate]",cytotoxicity,HEK293 cells,no cytotoxicity
same,NES: Asymmetric localization of PCP proteins,786-O cells,-1.441
same,NES: G1/S Transition,786-O cells,-1.326
same,NES: G2/M Checkpoints,786-O cells,-1.7
same,NES: G2/M Transition,786-O cells,-1.306
same,NES: Infection with Mycobacterium tuberculosis,786-O cells,1.8732
same,NES: Innate Immune System,786-O cells,1.345
same,NES: Keratan sulfate/keratin metabolism,786-O cells,1.522
same,NES: Mitotic G1 phase and G1/S transition,786-O cells,-1.351
same,NES: Mitotic G2-G2/M phases,786-O cells,-1.306
same,NES: Response of Mtb to phagocytosis,786-O cells,1.92
same,NES: TBC/RABGAPs,786-O cells,1.83
same,NES: p53-Independent G1/S DNA damage checkpoint,786-O cells,-1.606
same,enrichmentScore: Asymmetric localization of PCP proteins,786-O cells,-0.3931
same,enrichmentScore: G1/S Transition,786-O cells,-0.3116
same,enrichmentScore: G2/M Checkpoints,786-O cells,-0.3959
same,enrichmentScore: G2/M Transition,786-O cells,-0.2924
same,enrichmentScore: Infection with Mycobacterium tuberculosis,786-O cells,0.7066
same,enrichmentScore: Innate Immune System,786-O cells,0.2817
same,enrichmentScore: Mitotic G2-G2/M phases,786-O cells,-0.2924
same,enrichmentScore: Response of Mtb to phagocytosis,786-O cells,0.737
same,enrichmentScore: TBC/RABGAPs,786-O cells,0.6519
same,remaining activity at 2 µM,[1],73%
same,remaining activity at 2 µM,[2],95%
same,remaining activity at 2 µM,ALK(L1196M),85%
same,remaining activity at 2 µM,CAMK1B,100%
same,remaining activity at 2 µM,CDK4-cyclinD1,84%
same,remaining activity at 2 µM,EGFR,92%
same,remaining activity at 2 µM,ERBB3,94%
same,remaining activity at 2 µM,FGFR2,93%
same,remaining activity at 2 µM,GRK3,89%
same,remaining activity at 2 µM,IKK-epsilon,76%
same,remaining activity at 2 µM,IRAK4,92%
same,remaining activity at 2 µM,KIT-autoinhibited,96%
same,remaining activity at 2 µM,LOK,100%
same,remaining activity at 2 µM,MAP3K15,51%
same,remaining activity at 2 µM,MAPKAPK5,95%
same,remaining activity at 2 µM,MEK3,100%
same,remaining activity at 2 µM,NDR1,93%
same,remaining activity at 2 µM,NEK2,90%
same,remaining activity at 2 µM,NIM1,84%
same,remaining activity at 2 µM,p38-alpha,87%
same,remaining activity at 2 µM,PAK4,95%
same,remaining activity at 2 µM,PFPK5(P.falciparum),100%
same,remaining activity at 2 µM,PHKG2,88%
same,remaining activity at 2 µM,PIK3CA(Q546K),100%
same,remaining activity at 2 µM,PIM1,91%
same,remaining activity at 2 µM,PIM3,85%
same,remaining activity at 2 µM,QSK,85%
same,remaining activity at 2 µM,RIOK2,73%
same,remaining activity at 2 µM,[3],85%
same,remaining activity at 2 µM,SGK,100%
same,remaining activity at 2 µM,SgK110,71%
same,remaining activity at 2 µM,SIK,97%
same,remaining activity at 2 µM,SNARK,94%
same,remaining activity at 2 µM,TAOK1,100%
same,remaining activity at 2 µM,ULK1,77%
same,remaining activity at 2 µM,WNK1,100%

# — paper PMC10838953
